These are literature values, as cited in patent US11529374B2, “Extract and formulation including extract” (NIPPON ZOKI PHARMACEUTICAL CO., LTD., priority 2012, dated 2022).

The conditions of this data set: particularly an effect for non-inflammatory pain diseases such as neuropathic pain disease; Japanese Patent No. 4005115, CN 101600438B.

Turning to `CC(=O)N[C@H]1[C@H]([C@H](O)[C@H](O)CO)OC(O)(C(=O)O)C[C@@H]1O` (stereo partly shown) [N-acetylneuraminic acid], the Analgesic action result is “has an analgesic action”.
